# Test results reported in US20200163938A1, “PHARMACEUTICAL COMPOSITION COMPRISING IRON CHELATOR EXHIBITING ANTITUMOR ACTIVITY, ANTIBACTERIAL ACTIVITY AND/OR ANTIVIRUS ACTIVITY, AND HAVING REDUCED SIDE EFFECTS” (priority 2017, published 2020).
# “Also recorded” adds a separate entry of the source.
# Tests used:
# MCF-7 cells = experiment: Western blot of apoptosis-related factors; type: cell-based, human; conditions: MCF-7 cell lysate; FIG. 12
# Excerpt: (§1) The cell lysate of each type of cells treated with the chelating agents of test groups 6 and 10 was Western-blotted, and then an increase or a decrease in apoptosis-related factors in treated cells was confirmed using the indicated antibodies. […] Concentration-dependent apoptosis induction was also biochemically confirmed.
# HSC-2 cells = experiment: Western blot of apoptosis-related factors; type: cell-based, human; conditions: HSC-2 cell lysate; FIG. 12
# Excerpt: as §1
# A549 cells [1] = experiment: Western blot of apoptosis-related factors; type: cell-based, human; conditions: A549 cell lysate; FIG. 12
# Excerpt: as §1
# A549 cells [2] = experiment: Apoptosis induction, TUNEL staining; type: cell-based, human; conditions: 100 μg/mL, 48 hours, FIG. 11C
# Description: Furthermore, the apoptosis-inducing effects of the chelating agents of test groups 6 and 10 on tumors were confirmed. First, 100 μg/mL of the chelating agent of test group 6 or 50 μg/mL of the chelating agent of test group 10 was added to HSC-2 cells in a culture solution. After 48 hours of reaction, TUNEL Assay was carried out. Specifically, apoptosis induction was evaluated by the TUNEL staining method using a MK500 in situ Apoptosis Detection Kit (Takara Bio Inc.).
# Further, the apoptosis-inducing effects of the chelating agent of test group 6 or 10 on A549 cells were confirmed. 100 μg/mL of the chelating agent of test group 6 was added and 50 μg/mL of the chelating agent of test group 10 was added to the cells. After 48 hours of reaction, TUNEL staining was carried out similarly to the above.
# S. mutans (ATCC25175) = experiment: Antibacterial activity, turbidity and ATP assay; type: cell-based, Streptococcus mutans; conditions: aerobic culture 37° C., 18 hours; FIGS. 6A, 6B
# Description: First, the antibacterial activity of a dental caries-causing bacterium, S. mutans (ATCC25175) was examined. With the use of a liquid medium prepared by adding a yeast extract and the chelating agent of each test group to TSB medium, aerobic culture was performed at 37° C. for 18 hours, and then turbidity was found from optical density (OD570 or 595 nm). Cell activity was measured using an ATP assay kit (Kikkoman Corporation). Results were as depicted in FIGS. 6A and 6B.
structure (smiles),measurement,setting,value
Cl.OCC1OC(O)C(NCc2ccc(O)c(O)c2O)C(O)C1O (centres unmarked) [Test group 6],PARP cleaved fragments and caspase-3-cleaved fragments (Western blot),MCF-7 cells,PARP cleaved fragments and caspase-3-cleaved fragments were confirmed
same,PARP cleaved fragments and caspase-3-cleaved fragments (Western blot),HSC-2 cells,PARP cleaved fragments and caspase-3-cleaved fragments were confirmed
same,PARP cleaved fragments and caspase-3-cleaved fragments (Western blot),A549 cells [1],PARP cleaved fragments and caspase-3-cleaved fragments were confirmed
same,apoptosis-inducing effects (TUNEL staining),A549 cells [2],green-stained cells (FITC positive cells) indicating apoptosis were confirmed
same,"antimicrobial effects on S. mutans (turbidity, ATP activity)",S. mutans (ATCC25175),strong antimicrobial effects; also recorded: very strong antibacterial activity
